The test system of data set [1] is mitochondrial membrane potential in HTCs of REF-52 cells. Put plainly: HTC TMRE labeling, mitochondrial potential. The format is cell-based, rat. The conditions noted are these: for effect on mitochondrial potential, in words: HTC, TMRE; for EC50: Rattus norvegicus, read-out: EC50 of TMRE signal reduction (MMP uncoupling). The procedure: The ethyl ester of tetramethylrhodamine (TMRE, T-669, Invitrogen, Carlsbad, Calif.) was used to quantify the mitochondrial potential of the HTCs. HTCs were incubated in 100 nM TMRE for 30 min and then in phenol red free 10% FBS DMEM for 60 min. Phenol red free medium was used to prevent interference with TMRE fluorescence reading. Following labeling, HTCs were preconditioned with three stretches and then prior to background force measurement. HTC TMRE signal was then read on a Synergy HT plate reader (Biotek Instruments, Winooski, Vt.). A custom made adapter plate was used to position the tissue molds on the plate-holding rack of the plate reader. Fluorescence signal was read from the bottom using the 543/590 excitation/emission filter set and a gain setting of 50. TMRE fluorescence intensity was also read following each force measurement at predetermined time points after drug treatments.
TMRE is cationic and accumulates in the mitochondria as a function of MMP. […] More detailed investigation of DNP's effect on TMRE accumulation using confocal microscopy improved signal detection in both monolayers and HTCs (FIG. 6C and FIG. 6D).

The test system of data set [2] is HTCs of REF-52 cells. The conditions noted are these: 24 hours. The procedure: 3-(4,5-dimethylthiazol-2-yl)-2,5-diphenyltetrazolium (MTT, M-6494, Invitrogen) was used to quantify cell viability in the HTCs. At predetermined times following drug exposure, MTT was added to each well to achieve 0.5 mg/ml. MTT was left in the wells for 2 hr and then removed. The formazan dye that forms in the cells were then suspended in 500 μl of isopropanol (S77795, Fisher Scientific) containing 0.1 N hydrochloric acid. Two hundred microliters of the formazan solution is then put into a 96-well plate well and read on the Synergy HT plate reader. Absorbance at 570 and 650 nm were recorded and the difference (A570-A650) was used as the absorbance intensity of the formazan.
All chemicals are from Sigma (Sigma-Alrich, St. Louis, Mo.) unless otherwise noted. […] DNP was diluted to 1 M in DMSO and then to 100, 10, and 1 mM in -F/G/P DMEM. Following HTC preconditioning and background force (i.e. pre-drug) measurement, 50 μl of the appropriate drug dilutions were added to each well to achieve the desired treatment concentration. Fifty microliters of -F/G/P DMEM was added to the control wells. Upon drug addition, medium in the wells was mixed by pipetting four times.
Finally to measure the compounds' effects on cellular viability, the assay using 3-(4,5-Dimethylthiazol-2-yl)-2,5-diphenyltetrazolium bromide (MTT) was performed. In cells, the yellow MTT is converted to a purple colored formazan by succinate dehydrogenase and this change can be quantified by light absorbance between 500-600 nm was quantitatively recorded using the plate reader.

The test system of data set [3] is HepG2 cells. The note with it: previously reported; cited from earlier work.

“Also recorded” adds a separate entry of the source. Like-named read-outs stand apart in the source and are kept apart here.

In general, EC50 refers to the concentration at which the effect is half-maximal.

With `C=C(C)[C@H]1Cc2c(ccc3c2O[C@@H]2COc4cc(OC)c(OC)cc4[C@@H]2C3=O)O1` [ROT, rotenone], in data set [1], the “effect on mitochondrial potential, in words” value is on record as “moderate negative impact”. For the same compound, in data set [2] (10 μM), the “reduction of MTT signal” value was found to be 40%. Besides, the toxicity in data set [3] is reported as 25%.
Consider `O=[N+]([O-])c1ccc(O)c([N+](=O)[O-])c1` [DNP, 2,4-dinitrophenol], for which the “reduction in TMRE EC50 by 24 hours treatment” value in data set [1] (24 hr vs 3 hr) worked out at 3.6 fold. The “effect on mitochondrial potential, in words” value in data set [1] is reported as “dose-dependently uncoupled HTC mitochondrial potential; also recorded: extensive uncoupling effect”. The EC50 in data set [1] (REF52, 3 h) was about 340 µM; in data set [1] (REF52, 24 h), about 95 µM. Further, the “effect on HTC viability / MTT signal, in words” value in data set [2] is given as “did not affect MTT signal”.

The values above are taken from patent US10732174B2, “Three dimensional tissues for high-throughput assays” (INVIVOSCIENCES, INC., priority 2008, dated 2020).
